Patent publication US4769377A, “Adenosine receptor antagonists” (priority 1986, dated 1988)
Where two headings read alike, the source gives them in different places.

Biological target: T1, adenosine A1 receptors (Bos taurus, UniProt P28190)
T1 sequence (P28190 1-326): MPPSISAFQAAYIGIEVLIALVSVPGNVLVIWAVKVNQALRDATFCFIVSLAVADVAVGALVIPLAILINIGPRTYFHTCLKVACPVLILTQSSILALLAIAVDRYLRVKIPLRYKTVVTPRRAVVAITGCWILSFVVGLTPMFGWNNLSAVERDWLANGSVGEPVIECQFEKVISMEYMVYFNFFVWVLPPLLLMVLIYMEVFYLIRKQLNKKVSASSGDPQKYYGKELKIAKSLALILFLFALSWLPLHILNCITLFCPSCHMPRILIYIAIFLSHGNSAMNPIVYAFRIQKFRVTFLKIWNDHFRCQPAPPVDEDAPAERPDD
Test: inhibition of [^3 H]CHA binding to A1 adenosine receptors in bovine brain membranes;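 also: Filter-bound radioactivity read by liquid scintillation counting, with dose-inhibition curves built from 4–8 test concentrations, each run in triplicate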

[1] = Table II, vs [^3 H-CHA] in bovine brain

Protocol: Incubation was terminated and samples were collected on GF/B filters under vacuum, washed three times, and counted in a liquid scintillation counter. Dose-inhibition curves were generated with four to eight concentrations of the test compound in triplicate incubations.

SMILES | IC50 [1] [nM] | IC50 [nM] | further results
C=CCn1c(=O)c2[nH]c(-c3ccc(Cl)cc3N)nc2n(CC=C)c1=O [1,3-diallyl-8-(2-amino-4-chlorophenyl)X, 1,3-diallyl-8-(2-amino-4-chlorophenyl)xanthine] | 0.8 | – | adenosine receptor blocking activity (in words) (bovine brain): useful activity as an adenosine receptor antagonist
C=CCn1c(=O)c2nc[nH]c2n(CC=C)c1=O [1,3-diallylX] | – | 4000 | –
CCn1c(=O)c2[nH]c(-c3ccc(Br)cc3)nc2n(CC)c1=O [1,3-diethyl-8-(p-bromophenyl)X] | 1 | – | –
CCn1c(=O)c2nc[nH]c2n(CC)c1=O [1,3-diethylX] | – | 3000 | Ki: 1400 nM
Cn1c(=O)c2nc3ccccc3nc2n(C)c1=O [1,3-dimethylalloxazine] | – | 25000 | –
Cn1c(=O)[nH]c2ncn(C)c2c1=O [1,7-dimethylX] | – | 30000 | Ki: 7400 nM
C=CCn1c(=O)c2[nH]c(-c3ccc(Cl)cc3N)nc2n(C)c1=O [1-allyl-3-methyl-8-(2-amino-4-chlorophenyl)X] | 2 | – | –
C=CCn1c(=O)c2[nH]c(-c3ccc(C)cc3N)nc2n(C)c1=O [1-allyl-3-methyl-8-(2-amino-4-methylphenyl)X] | 7 | – | –
C=CCn1c(=O)c2[nH]c(-c3ccccc3)nc2n(C)c1=O [1-allyl-3-methyl-8-phenylX] | 4 | – | –
CCCn1c(=O)n(CC)c(=O)c2scnc21 [1-ethyl-3-propyl-7-thiaxanthine] | – | 8000 | –
Cn1c(=O)[nH]c2nc(-c3ccccc3)[nH]c2c1=O [1-methyl-8-phenylX] | 2.5 | – | –
Cn1c(=O)[nH]c2nc[nH]c2c1=O [1-methylX] | – | 6000 | Ki: 2600 nM
Cn1cnc2c1c(=O)[nH]c(=O)n2C [3,7-Dimethyl (theobromine), theobromine] | – | – | Ki: 68 nM
Cn1c(=O)[nH]c(=O)c2[nH]cnc21 [3-methylX] | – | 150000 | –
Cn1c(=O)c2c(ncn2CC(O)CO)n(C)c1=O (stereo not drawn) [7-(2,3-dihydroxypropyl)T] | – | 800000 | –
Cn1c(=O)c2c(ncn2CCCl)n(C)c1=O [7-(2-chloroethyl)T] | – | 5000 | –
Cn1c(=O)c2c(ncn2CCO)n(C)c1=O [7-(2-hydroxyethyl)T] | – | 100000 | –
Cn1c(=O)c2[nH]c(-c3cccc4ccccc34)nc2n(C)c1=O [8-(1-naphthyl)T] | 80 | – | –
COc1ccc(-c2nc3c([nH]2)c(=O)n(C)c(=O)n3C)c(OC)c1 [8-(2,4-dimethoxyphenyl)T] | 200 | – | –
Cc1cc(O)cc(C)c1-c1nc2c([nH]1)c(=O)n(C)c(=O)n2C [8-(2,6-dimethyl-4-hydroxyphenyl)T] | 30 | – | –
Cc1ccc(-c2nc3c([nH]2)c(=O)n(C)c(=O)n3C)c(N)c1 [8-(2-amino-4-methylphenyl)T] | 10 | – | –
Cn1c(=O)c2[nH]c(-c3ccco3)nc2n(C)c1=O [8-(2-furyl)T] | – | 18 | –
Cn1c(=O)c2[nH]c(-c3ccc4ccccc4c3)nc2n(C)c1=O [8-(2-naphthyl)T] | – | 5 | –
Cn1c(=O)c2[nH]c(-c3ccccn3)nc2n(C)c1=O [8-(2-pyridyl)T] | – | 100 | –
Cn1c(=O)c2nc(-c3cccs3)[nH]c2n(C)c1=O [8-(2-thienyl)T] | – | 5 | –
Cn1c(=O)c2[nH]c(-c3ccc(Cl)c(Cl)c3)nc2n(C)c1=O [8-(3,4-dichlorophenyl)T] | 5 | – | –

SMILES | IC50 [1] [nM] | IC50 [nM] | further results
COc1ccc(-c2nc3c([nH]2)c(=O)n(C)c(=O)n3C)cc1OC [8-(3,4-dimethoxyphenyl)T] | – | 20 | –
COc1cc(OC)cc(-c2nc3c([nH]2)c(=O)n(C)c(=O)n3C)c1 [8-(3,5-dimethoxyphenyl)T] | 500 | – | –
Cn1c(=O)c2[nH]c(-c3ccoc3)nc2n(C)c1=O [8-(3-furyl)T] | 4 | – | –
Cn1c(=O)c2[nH]c(-c3c[nH]c4ccccc34)nc2n(C)c1=O [8-(3-indolyl)T] | – | 18 | –
Cn1c(=O)c2[nH]c(-c3cccnc3)nc2n(C)c1=O [8-(3-pyridyl)T] | – | 50 | –
Cn1c(=O)c2[nH]c(-c3ccncc3)nc2n(C)c1=O [8-(4-pyridyl)T] | 35 | – | –
Cn1c(=O)c2[nH]c(-c3ccc(Br)o3)nc2n(C)c1=O [8-(5-bromo-2-furyl)T] | – | 50 | –
Cc1ccc(-c2nc3c([nH]2)c(=O)n(C)c(=O)n3C)s1 [8-(5-methyl-2-thienyl)T] | – | 5 | –
Cn1cccc1-c1nc2c([nH]1)c(=O)n(C)c(=O)n2C [8-(N--methyl-2-pyrrolyl)T] | – | 20 | –
Cn1c(=O)c2[nH]c(-c3cccc(N)c3)nc2n(C)c1=O [8-(m-aminophenyl)T] | 10 | – | Ki: 5.8 nM
Cn1c(=O)c2[nH]c(-c3cccc(Br)c3)nc2n(C)c1=O [8-(m-bromophenyl)T] | 10 | – | Ki: 4 nM
Cn1c(=O)c2[nH]c(-c3cccc(C(=O)O)c3)nc2n(C)c1=O [8-(m-carboxyphenyl)T] | 1000 | – | Ki: 540 nM
CN(C)c1cccc(-c2nc3c([nH]2)c(=O)n(C)c(=O)n3C)c1 [8-(m-dimethylaminophenyl)T] | 80 | – | –
Cn1c(=O)c2[nH]c(-c3cccc(F)c3)nc2n(C)c1=O [8-(m-fluorophenyl)T] | 4 | – | –
Cn1c(=O)c2[nH]c(-c3cccc(O)c3)nc2n(C)c1=O [8-(m-hydroxyphenyl)T] | 6 | – | Ki: 3.1 nM
COc1cccc(-c2nc3c([nH]2)c(=O)n(C)c(=O)n3C)c1 [8-(m-methoxyphenyl)T] | 20 | – | –
Cc1cccc(-c2nc3c([nH]2)c(=O)n(C)c(=O)n3C)c1 [8-(m-methylphenyl)T] | 13 | – | –
Cn1c(=O)c2[nH]c(-c3cccc([N+](=O)[O-])c3)nc2n(C)c1=O [8-(m-nitrophenyl)T] | 50 | – | Ki: 22 nM
CCCc1nc2c([nH]1)c(=O)n(C)c(=O)n2C [8-(n-propyl)T] | – | 100 | –
Cn1c(=O)c2[nH]c(-c3ccccc3C(=O)O)nc2n(C)c1=O [8-(o-carboxyphenyl)T] | 2500 | – | Ki: 21000 nM
Cn1c(=O)c2[nH]c(-c3ccccc3F)nc2n(C)c1=O [8-(o-fluorophenyl)T] | – | 12 | –
Cn1c(=O)c2[nH]c(-c3ccccc3O)nc2n(C)c1=O [8-(o-hydroxyphenyl)T] | 10 | – | Ki: 4.8 nM
COc1ccccc1-c1nc2c([nH]1)c(=O)n(C)c(=O)n2C [8-(o-methoxyphenyl)T] | 350 | – | –
Cc1ccccc1-c1nc2c([nH]1)c(=O)n(C)c(=O)n2C [8-(o-methylphenyl)T] | – | 6 | –
Cn1c(=O)c2[nH]c(-c3ccccc3[N+](=O)[O-])nc2n(C)c1=O [8-(o-nitrophenyl)T] | 80 | – | Ki: 49 nM
Cn1c(=O)c2[nH]c(-c3ccc(Br)cc3)nc2n(C)c1=O [8-(p-bromophenyl)T] | – | 0.8 | Ki: 0.34 nM

SMILES | IC50 [1] [nM] | IC50 [nM] | further results
CCCCOc1ccc(-c2nc3c([nH]2)c(=O)n(C)c(=O)n3C)cc1 [8-(p-butoxyphenyl)T] | 4 | – | –
Cn1c(=O)c2[nH]c(-c3ccc(C(=O)O)cc3)nc2n(C)c1=O [8-(p-carboxyphenyl)T] | 50 | – | Ki: 18 nM
CN(C)c1ccc(-c2nc3c([nH]2)c(=O)n(C)c(=O)n3C)cc1 [8-(p-dimethylaminophenyl)T] | 1.8 | – | –
CCOc1ccc(-c2nc3c([nH]2)c(=O)n(C)c(=O)n3C)cc1 [8-(p-ethoxyphenyl)T] | 2 | – | –
CCc1ccc(-c2nc3c([nH]2)c(=O)n(C)c(=O)n3C)cc1 [8-(p-ethylphenyl)T] | 0.8 | – | –
Cn1c(=O)c2[nH]c(-c3ccc(F)cc3)nc2n(C)c1=O [8-(p-fluorophenyl)T] | 3.5 | – | –
Cn1c(=O)c2[nH]c(-c3ccc(O)cc3)nc2n(C)c1=O [8-(p-hydroxyphenyl)T] | 2 | – | Ki: 2 nM
Cn1c(=O)c2[nH]c(-c3ccc(I)cc3)nc2n(C)c1=O [8-(p-iodophenyl)T] | 1.3 | – | –
CC(C)c1ccc(-c2nc3c([nH]2)c(=O)n(C)c(=O)n3C)cc1 [8-(p-isopropylphenyl)T] | 2.5 | – | –
COc1ccc(-c2nc3c([nH]2)c(=O)n(C)c(=O)n3C)cc1 [8-(p-methoxyphenyl)T] | 1.5 | – | –
Cc1ccc(-c2nc3c([nH]2)c(=O)n(C)c(=O)n3C)cc1 [8-(p-methylphenyl)T] | 0.8 | – | –
CSc1ccc(-c2nc3c([nH]2)c(=O)n(C)c(=O)n3C)cc1 [8-(p-methylthiophenyl)T] | 2 | – | –
Cn1c(=O)c2[nH]c(-c3ccc([N+](=O)[O-])cc3)nc2n(C)c1=O [8-(p-nitrophenyl)T] | 8 | – | Ki: 4 nM
Cn1c(=O)c2[nH]c(-c3ccc(-c4ccccc4)cc3)nc2n(C)c1=O [8-(p-phenylphenyl)T] | 3.5 | – | –
Cn1c(=O)c2[nH]c(-c3ccc(S(=O)(=O)O)cc3)nc2n(C)c1=O [8-(p-sulfo-phenyl)T] | – | 500 | –
Cn1c(=O)c2[nH]c(Cc3ccccc3)nc2n(C)c1=O [8-benzylT] | – | 1500 | –
Cn1c(=O)c2nc(C3CCCCC3)[nH]c2n(C)c1=O [8-cyclohexylT] | – | 3 | –
Cn1c(=O)c2[nH]c(C3CCCC3)nc2n(C)c1=O [8-cyclopentylT] | – | 2 | –
Cn1c(=O)c2[nH]c(CC3CCCC3)nc2n(C)c1=O [8-cyclopentylmethylT] | – | 30 | –
Cn1c(=O)c2[nH]c(-[c-]3cccc3)nc2n(C)c1=O.[Fe+2].c1cc[cH-]c1 [8-ferrocenylT] | 20 | – | –
Cn1c(=O)c2[nH]c([N+](=O)[O-])nc2n(C)c1=O [8-nitroT] | 3500 | – | –
Cn1cnc2c(N)ncnc21 [9-methyladenine] | – | 35000 | –
Cn1c(=O)c2[nH]c(-c3ccc(Cl)cc3)nc2n(C)c1=O [B70, 8-(p-chlorophenyl)theophylline] | – | – | IC50 (Table I, vs [^3 H]-cyclohexyladenosine, bovine brain): 0.8 nM
CCCn1c(=O)c2nc[nH]c2n(CCC)c1=O [B80, 1,3-dipropylxanthine] | – | 200 | Ki: 100 nM
